Measured values taken from patent publication US8846949B2, “Pyrrolopyrazoles as N-type calcium channel blockers” (Janssen Pharmaceutica NV, priority 2012, dated 2014).
Read-outs that look alike come from different tables or passages of the source.

How the values were obtained:
[1] = biological target: T1, N-type calcium channel α1B (Cav2.2), β3 and α2δ subunits (Homo sapiens, UniProt Q00975); test: Functional assay, antagonism of N-type calcium channel (FDSS calcium mobilization response to KCl depolarization); assay type: cell-based; settings: for IC50: HEK stable cell line, 50 mM KCl depolarization, six-point concentration-response
T1 construct: expressed in transfected cells
Summary of the method: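 HEK cells stably co-expressing α1B (Cav2.2), β3 and α2δ subunits were loaded with calcium dye, preincubated with compound for 5 min, then depolarized with 50 mM KCl and read for 3 min by FDSS fluorescence. IC50 from six-point curves, normalized to KCl maximum and buffer minimum.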

N-type calcium channel = biological target: T2, N-type calcium channel (Homo sapiens, UniProt Q00975); test: Automated electrophysiology assay (QPatch-HT whole-cell patch clamp); assay type: cell-based
T2 construct: expressed in transfected cells
Procedure: Cells were grown in T175 flasks to 50%-90% confluence. At the time of use, cells were enzymatically treated with Detachin (Genlantis, San Diego, Calif. USA), centrifuged, rinsed, and resuspended in 293 SFM II media (Life Technologies, Grand Island, N.Y. U.S.A.) supplemented with 25 mM HEPES (Sigma-Aldrich, St. Louis, Mo. U.S.A.) to a concentration of 2-3×10^6 cells/mL. Cells were added to the automated cell preparation station on the QPatch-HT (Sophion Biosciences, North Brunswick, N.J. U.S.A.), and following a 10- to 30-min recovery period with gentle stirring, the assay protocol was initiated. During the automated cell preparation, cells were collected, centrifuged and resuspended in an extracellular (EC) solution containing 132 mM NaCl, 1.8 mM CaCl2, 5.4 mM KCl, 0.8 mM MgCl2, 10 mM glucose, and 10 mM HEPES (pH=7.4), adjusted with sucrose to approximately 315 m0sm. The QPlate was primed with an intracellular solution containing 135 mM CsCl, 10 mM EGTA, 4 MgATP, 0.3 NaGTP, and 20 mM HEPES (pH=7.2), adjusted to approximately 290 m0sm with deionized water and the EC solution. Cells were added to the prepared QPlate wells by robotic pipettes of the QPatch-HT.
For cells determined to be in stable whole-cell patch clamp, the EC solution was replaced with a barium (Ba)/triethylammonium (TEA) solution containing 140 mM TEA-Cl, 10 mM BaCl2, 0.8 mM MgCl2, 10 mM glucose and 10 mM HEPES (pH=7.4). High (40 mM) BaCl2 concentrations were made with adjustments to TEA-C1 (90 mM) to maintain the osmolarity. From a resting potential of −80 mV, a train of depolarizing pulses (15 pulses at 5 Hz, +20 mV) was delivered to the cell once every 30 sec for eight trains (4 min total), and the resulting currents were measured during a control period (no compound). This protocol was repeated for each subsequent addition of control buffer with or without compound (three periods total, each with four trains). The current generated in the 1st and 15th pulses of the last train of each period in the presence of each drug concentration was normalized to the current generated during the control period at the respective pulses (representing low- and high-frequency stimulation, respectively). Data from both the second and third drug application periods were analyzed for each cell. A final addition of Ba/TEA solution containing 60-100 μM CdCl2 was made to block all N-type current and to “zero” the currents for each cell. All buffer/compound additions were made using a “spitting” feature of the QPatch-HT, which added three repetitions of 5 μL solution at the beginning of each recording period.
To examine closed-state inactivation, cells were subjected to a channel-activating 50-msec depolarizing step pulse from −80 to +10 mV, followed by a 5-sec nonactivating step to voltages ranging from −130 to −60 mV in 10 mV increments and then a 50-ms step from −80 to +10 mV to assess the remaining current. Currents from the activating voltage pulse were normalized to the peak value of the test pulse following the −130 mV step and fit to a Boltzman equation to obtain the V1/2. Roscovitine (Sigma-Aldrich) was prepared as a 100 mM stock in dimethyl sulfoxide and diluted to the indicated working concentrations. […]. Compounds of Formula (I) were diluted first into dimethyl sulfoxide and then into 10% pluronic F-127 in water (Life Technologies), sonicated for 1 min and diluted into EC buffer. Vehicle controls were run in parallel in all experiments.
Unless otherwise indicated, statistics for comparing among electrophysiological results utilized a one-way analysis of variance with Fisher's least squares determination test for pair-wise comparison.

[2] = high frequency (15th pulse of train, 5 Hz), read-out: QPatch at High Frequency % Inhibition
[3] = low frequency (1st pulse of train), read-out: QPatch at Low Frequency % Inhibition

T2 sequence (Q00975 whole entry): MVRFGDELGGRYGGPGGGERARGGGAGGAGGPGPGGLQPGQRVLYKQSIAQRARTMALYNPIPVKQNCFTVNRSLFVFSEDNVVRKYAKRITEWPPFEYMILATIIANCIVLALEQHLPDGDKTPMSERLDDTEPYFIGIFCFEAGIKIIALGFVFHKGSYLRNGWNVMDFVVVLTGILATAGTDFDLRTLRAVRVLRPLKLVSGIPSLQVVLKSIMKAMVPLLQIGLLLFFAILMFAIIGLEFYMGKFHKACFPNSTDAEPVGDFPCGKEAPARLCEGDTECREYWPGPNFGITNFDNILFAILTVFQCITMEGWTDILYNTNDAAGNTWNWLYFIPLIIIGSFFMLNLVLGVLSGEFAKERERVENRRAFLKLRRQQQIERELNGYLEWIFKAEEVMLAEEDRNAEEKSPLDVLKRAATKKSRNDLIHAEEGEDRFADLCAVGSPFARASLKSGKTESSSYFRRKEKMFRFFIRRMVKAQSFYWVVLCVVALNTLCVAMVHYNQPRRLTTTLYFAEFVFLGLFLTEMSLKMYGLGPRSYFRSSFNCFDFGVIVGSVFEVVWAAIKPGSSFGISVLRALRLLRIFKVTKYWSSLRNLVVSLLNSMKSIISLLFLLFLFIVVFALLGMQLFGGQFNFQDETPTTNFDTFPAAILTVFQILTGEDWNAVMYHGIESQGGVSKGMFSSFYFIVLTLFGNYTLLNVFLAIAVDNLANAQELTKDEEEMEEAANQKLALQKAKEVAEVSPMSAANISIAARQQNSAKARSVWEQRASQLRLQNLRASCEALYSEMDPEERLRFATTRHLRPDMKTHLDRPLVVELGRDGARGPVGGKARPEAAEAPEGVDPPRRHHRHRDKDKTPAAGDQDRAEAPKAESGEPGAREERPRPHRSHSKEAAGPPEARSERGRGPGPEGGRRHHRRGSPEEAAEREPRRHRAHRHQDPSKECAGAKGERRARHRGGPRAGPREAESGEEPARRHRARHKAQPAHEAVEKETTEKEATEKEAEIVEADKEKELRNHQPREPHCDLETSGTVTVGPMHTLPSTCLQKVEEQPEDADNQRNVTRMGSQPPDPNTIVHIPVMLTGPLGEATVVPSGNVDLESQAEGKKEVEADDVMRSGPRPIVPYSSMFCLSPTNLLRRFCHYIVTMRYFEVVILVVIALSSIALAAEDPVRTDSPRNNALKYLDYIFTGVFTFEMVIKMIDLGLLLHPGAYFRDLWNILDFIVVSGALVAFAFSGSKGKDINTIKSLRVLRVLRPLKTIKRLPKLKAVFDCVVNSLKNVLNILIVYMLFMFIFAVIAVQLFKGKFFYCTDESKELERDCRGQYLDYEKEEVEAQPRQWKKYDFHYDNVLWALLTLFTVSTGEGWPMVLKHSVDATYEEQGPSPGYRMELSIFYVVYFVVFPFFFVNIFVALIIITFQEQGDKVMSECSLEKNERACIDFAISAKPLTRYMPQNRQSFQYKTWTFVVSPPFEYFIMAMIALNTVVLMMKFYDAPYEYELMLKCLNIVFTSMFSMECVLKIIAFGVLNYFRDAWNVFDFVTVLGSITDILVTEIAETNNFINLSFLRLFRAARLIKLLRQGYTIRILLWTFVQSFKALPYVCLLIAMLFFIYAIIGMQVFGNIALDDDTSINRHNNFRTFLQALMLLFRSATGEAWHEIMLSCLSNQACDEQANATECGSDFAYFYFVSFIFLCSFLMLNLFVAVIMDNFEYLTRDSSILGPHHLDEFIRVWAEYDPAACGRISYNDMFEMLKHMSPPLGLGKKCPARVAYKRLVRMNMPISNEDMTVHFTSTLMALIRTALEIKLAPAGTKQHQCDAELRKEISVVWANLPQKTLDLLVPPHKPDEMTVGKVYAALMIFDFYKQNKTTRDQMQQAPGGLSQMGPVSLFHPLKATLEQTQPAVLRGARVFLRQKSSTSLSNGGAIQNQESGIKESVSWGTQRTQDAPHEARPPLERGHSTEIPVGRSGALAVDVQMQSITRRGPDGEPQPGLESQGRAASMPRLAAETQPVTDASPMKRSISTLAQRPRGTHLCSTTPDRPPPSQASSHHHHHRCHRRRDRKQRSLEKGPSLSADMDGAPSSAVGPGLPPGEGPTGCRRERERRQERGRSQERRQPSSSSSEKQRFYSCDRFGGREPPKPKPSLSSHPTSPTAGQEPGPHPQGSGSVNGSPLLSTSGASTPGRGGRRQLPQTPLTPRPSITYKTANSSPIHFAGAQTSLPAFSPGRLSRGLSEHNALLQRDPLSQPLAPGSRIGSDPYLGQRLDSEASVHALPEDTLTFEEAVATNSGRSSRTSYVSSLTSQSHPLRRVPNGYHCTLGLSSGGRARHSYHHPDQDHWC
T2 sequence (P54284 whole entry partner): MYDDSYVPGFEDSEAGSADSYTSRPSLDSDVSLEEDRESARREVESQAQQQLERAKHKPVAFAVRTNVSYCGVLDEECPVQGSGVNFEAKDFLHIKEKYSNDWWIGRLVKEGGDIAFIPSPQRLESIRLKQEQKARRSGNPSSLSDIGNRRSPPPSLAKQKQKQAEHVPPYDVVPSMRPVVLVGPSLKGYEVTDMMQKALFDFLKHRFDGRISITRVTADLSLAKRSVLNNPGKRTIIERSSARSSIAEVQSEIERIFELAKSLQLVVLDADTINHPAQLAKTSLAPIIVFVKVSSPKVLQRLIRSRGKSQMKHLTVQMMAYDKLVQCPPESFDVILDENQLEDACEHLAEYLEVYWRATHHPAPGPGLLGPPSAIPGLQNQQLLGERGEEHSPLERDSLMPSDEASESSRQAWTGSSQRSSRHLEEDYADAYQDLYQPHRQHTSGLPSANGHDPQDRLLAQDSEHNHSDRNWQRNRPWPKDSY
T2 sequence (P54289 25-956 partner limits assumed): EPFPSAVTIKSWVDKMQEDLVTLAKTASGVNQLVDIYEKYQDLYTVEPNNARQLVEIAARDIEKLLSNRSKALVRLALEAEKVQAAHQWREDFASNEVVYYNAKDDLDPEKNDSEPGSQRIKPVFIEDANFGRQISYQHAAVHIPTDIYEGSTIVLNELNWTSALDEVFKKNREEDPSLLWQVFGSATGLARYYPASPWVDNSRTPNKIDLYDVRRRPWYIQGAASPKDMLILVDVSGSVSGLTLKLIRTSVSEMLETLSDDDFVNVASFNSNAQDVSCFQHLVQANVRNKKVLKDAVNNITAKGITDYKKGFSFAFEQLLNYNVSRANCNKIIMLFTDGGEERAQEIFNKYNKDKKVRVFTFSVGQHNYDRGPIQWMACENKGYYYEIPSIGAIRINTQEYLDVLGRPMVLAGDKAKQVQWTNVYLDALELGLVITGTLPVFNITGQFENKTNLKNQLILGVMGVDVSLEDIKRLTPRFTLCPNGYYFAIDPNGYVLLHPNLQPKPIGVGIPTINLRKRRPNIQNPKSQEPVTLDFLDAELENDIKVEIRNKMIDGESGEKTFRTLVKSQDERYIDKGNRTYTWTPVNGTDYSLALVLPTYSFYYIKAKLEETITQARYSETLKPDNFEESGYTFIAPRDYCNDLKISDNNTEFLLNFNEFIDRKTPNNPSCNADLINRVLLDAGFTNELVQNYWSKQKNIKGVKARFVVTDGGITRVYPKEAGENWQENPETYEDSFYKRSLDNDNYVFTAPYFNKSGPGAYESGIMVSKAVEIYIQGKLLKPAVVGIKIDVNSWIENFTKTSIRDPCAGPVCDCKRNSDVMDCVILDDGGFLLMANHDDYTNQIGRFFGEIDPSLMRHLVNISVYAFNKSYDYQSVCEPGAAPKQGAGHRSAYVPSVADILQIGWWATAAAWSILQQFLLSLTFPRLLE
T2 sequence (P54289 957-1103 partner limits assumed): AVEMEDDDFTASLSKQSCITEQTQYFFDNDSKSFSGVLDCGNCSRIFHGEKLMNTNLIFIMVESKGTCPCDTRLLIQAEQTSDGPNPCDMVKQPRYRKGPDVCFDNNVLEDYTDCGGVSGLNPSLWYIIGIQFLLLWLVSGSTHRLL
T1 sequence (Q00975 whole entry): as the sequence (Q00975 whole entry) above
T1 sequence (P54284 whole entry partner): as the sequence (P54284 whole entry partner) above
T1 sequence (P54289 25-956 partner limits assumed): as the sequence (P54289 25-956 partner limits assumed) above
T1 sequence (P54289 957-1103 partner limits assumed): as the sequence (P54289 957-1103 partner limits assumed) above

| SMILES | IC50 [1] [nM] | inhibition at 0.25 µM (N-type calcium channel; [2]) [%] | inhibition at 0.25 µM (N-type calcium channel; [3]) [%] | inhibition at 1 µM (N-type calcium channel; [2]) [%] | inhibition at 1 µM (N-type calcium channel; [3]) [%] | inhibition at 0.1 µM (N-type calcium channel; [2]) [%] | inhibition at 0.1 µM (N-type calcium channel; [3]) [%] | other results |
| --- | --- | --- | --- | --- | --- | --- | --- | --- |
| COc1ccccc1-n1nc2c(c1-c1ccc(Cl)cc1)CN(S(=O)(=O)C1CC1)C2 [Cpd 32, 3-(4-Chlorophenyl)-5-(cyclopropylsulfonyl)-2-(2-methoxyphenyl)-2,4,5,6-tetrahydropyrrolo[3,4-c]pyrazole] | 21 | 64 | 57 | 83 | 74 |  |  | inhibition at 0.03 µM (N-type calcium channel; [2]): -5%; inhibition at 0.03 µM (N-type calcium channel; [3]): -6%; inhibition at 0.05 µM (N-type calcium channel; [2]): 23%; inhibition at 0.05 µM (N-type calcium channel; [3]): 10% |
| CC(C)S(=O)(=O)N1Cc2nn(-c3ccccc3OC(F)(F)F)c(-c3ccc(Cl)cc3)c2C1 [Cpd 35, 3-(4-Chlorophenyl)-5-[(1-methylethyl)sulfonyl]-2-[2-(trifluoromethoxy)phenyl]-2,4,5,6-tetrahydropyrrolo[3,4-c]pyrazole] | 27 | 42 | 22 |  |  |  |  |  |
| COc1ccccc1-n1nc2c(c1-c1ccc(Cl)cc1)CN(S(=O)(=O)CC(F)(F)F)C2 [Cpd 36, 3-(4-Chlorophenyl)-2-(2-methoxyphenyl)-5-[(2,2,2-trifluoroethyl)sulfonyl]-2,4,5,6-tetrahydropyrrolo[3,4-c]pyrazole] | 15 | 58 | 42 |  |  |  |  |  |
| COc1ccccc1-n1nc2c(c1-c1ccc(Cl)cc1)CN(S(=O)(=O)C1CCCCC1)C2 [Cpd 37, 3-(4-Chlorophenyl)-5-(cyclohexylsulfonyl)-2-(2-methoxyphenyl)-2,4,5,6-tetrahydropyrrolo[3,4-c]pyrazole] | 16 | 73 | 61 |  |  |  |  |  |
| CCCC(C)S(=O)(=O)N1Cc2nn(-c3ccccc3OC)c(-c3ccc(Cl)cc3)c2C1 (stereo not drawn) [Cpd 41, 3-(4-Chlorophenyl)-2-(2-methoxyphenyl)-5-[(1-methylbutyl)sulfonyl]-2,4,5,6-tetrahydropyrrolo[3,4-c]pyrazole] | 19 |  |  | 91 | 80 | 40 | 7 | inhibition at 0.33 µM ([1]; 0.33 μM compound, FDSS, 50 mM KCl): 90% |
| COc1ccccc1-n1nc2c(c1-c1ccc(Cl)cc1)CN(S(=O)(=O)CCNS(=O)(=O)C(C)C)C2 [Cpd 45, N-(2-{[3-(4-Chlorophenyl)-2-(2-methoxyphenyl)-2,6-dihydropyrrolo[3,4-c]pyrazol-5(4H)-yl]sulfonyl}ethyl)propane-2-sulfonamide] | 13 |  |  |  |  | 26 | 26 |  |

The next compounds have a lower IC50 [1] than those just listed; values first:

| IC50 [1] [nM] | inhibition at 0.25 µM (N-type calcium channel; [2]) [%] | inhibition at 0.25 µM (N-type calcium channel; [3]) [%] | inhibition at 1 µM (N-type calcium channel; [2]) [%] | inhibition at 1 µM (N-type calcium channel; [3]) [%] | inhibition at 0.1 µM (N-type calcium channel; [2]) [%] | inhibition at 0.1 µM (N-type calcium channel; [3]) [%] | SMILES | other results |
| --- | --- | --- | --- | --- | --- | --- | --- | --- |
| 9 |  |  | 78 | 74 |  |  | COc1ccccc1-n1nc2c(c1-c1ccc(Cl)cc1)CN(S(=O)(=O)N(C)C)C2 [Cpd 33, 3-(4-Chlorophenyl)-2-(2-methoxyphenyl)-N,N-dimethyl-2,6-dihydropyrrolo[3,4-c]pyrazole-5(4H)-sulfonamide] |  |
| 12 | 69 | 57 |  |  |  |  | COc1ccccc1-n1nc2c(c1-c1ccc(Cl)cc1)CN(S(=O)(=O)C1CCCC1)C2 [Cpd 40, 3-(4-Chlorophenyl)-5-(cyclopentylsulfonyl)-2-(2-methoxyphenyl)-2,4,5,6-tetrahydropyrrolo[3,4-c]pyrazole] |  |
| 9 |  |  |  |  | -5 | -2 | COc1ccccc1-n1nc2c(c1-c1ccc(Cl)cc1)CN(S(=O)(=O)CCNS(C)(=O)=O)C2 [Cpd 44, N-(2-{[3-(4-Chlorophenyl)-2-(2-methoxyphenyl)-2,6-dihydropyrrolo[3,4-c]pyrazol-5(4H)-yl]sulfonyl}ethyl)methanesulfonamide] |  |
| 5 |  |  |  |  | -6 | -8 | COc1ccccc1-n1nc2c(c1-c1ccc(Cl)cc1)CN(S(=O)(=O)CCNS(=O)(=O)N(C)C)C2 [Cpd 46, N′-(2-{[3-(4-Chlorophenyl)-2-(2-methoxyphenyl)-2,6-dihydropyrrolo[3,4-c]pyrazol-5(4H)-yl]sulfonyl}ethyl)-N,N-dimethylsulfamide] |  |
